Assay results published in patent publication US20200253877A1, “GEMCABENE, PHARMACEUTICALLY ACCEPTABLE SALTS THEREOF, COMPOSITIONS THEREOF AND METHODS OF USE THEREFOR” (NEUROBO PHARMACEUTICALS, INC., priority 2018, published 2020).

Columns and labels:
[1] = Aqueous solubility of gemcabene calcium salt forms over 24 hours (HPLC concentration, XRPD form); assay type: physicochemical; settings: slurry in water, approximately 25° C.
Procedure: To each vial, approximately 3 mL to 4 mL water were added and the samples were mixed at ambient temperature (approximately 25° C.) for approximately 24 hours. […] From each vial, samples of the slurries were taken after 1, 4, and 24 hours, which were separated by centrifugation. The solids were separated by centrifugation and analyzed by XRPD for solid form and by HPLC for concentration.

[2] = Stability study of gemcabene calcium salt forms (XRPD form, HPLC/CAD purity); assay type: physicochemical
Procedure: The stability studies were carried out using storage conditions at a) 40° C. and 75% relative humidity (RH), b) at 80° C. and c) at ambient temperature (approximately 22° C.). After 7 days and 14 days, the samples were removed from the relevant storage conditions and initially analyzed by XRPD to identify any form changes. The samples were then analyzed by HPLC/CAD (high-performance liquid chromatography equipped with a charged aerosol detector) for purity, with all solid purity values given on a w/w % basis.

CC(C)(CCCCOCCCCC(C)(C)C(=O)[O-])C(=O)[O-].[Ca+2] [amorphous gemcabene calcium salt]
change in polymorphic form during the test period (XRPD) ([1]; 24 hours): conversion to a new polymorph, gemcabene calcium salt hydrate Crystal Form 6 | change in concentration (HPLC) during the experiment ([1]; sampled 1, 4, 24 hours): initial increase in concentration after 4 hours followed by a slight decrease in the concentration after 24 hours | change in form (XRPD) ([2]; 2-week study, 40° C./75% RH, 80° C. and ambient): No change in the form | purity (HPLC/CAD) compared to the starting form ([2]; after 2 weeks storage, all 3 storage conditions): drop in purity
